Assay results: patent publication US7648961B2, “Use of somatostatin or one of its analogues for preparing a medicament intended to regulate the ovarian follicular reserve in non-menopausal women” (Preglem S.A., priority 2003, dated 2010)
Where a SMILES comes first, the peptide text is derived from it. [ ]: non-standard residue; d: D form. Tic = O=C(O)[C@@H]1Cc2ccccc2CN1; Abu = CC[C@H](N)C(=O)O

Assays:
[1] = test system: primordial follicles of ovarian cortex; assay: Culture of ewe ovarian cortex fragments for 10 days: start of growth of primordial follicles; format: cell-based; conditions: for start of growth of the primordial follicles: ewe ovarian cortex, 10 days of culture, versus control fragments
Experimental: Ovaries of adult ewes are collected immediately after slaughter. The ovaries are placed in an organ transport medium without serum (X-vivo, Bio Whittaker, Walkersville, Md., USA) at 10° C. and transported to the laboratory. Approximately 1 h after removal, the cortex is isolated from the medulla then fractionated into slices of 2 mm thickness (1 cm^2, average weight of 212 mg) after rinsing in new X-vivo. The cortex fragments are cultured in an oven under 5% oxygen for 10 days in well plates in the presence of DMEM. The medium is changed every 2 days.
The procedure used is the same as for Example 1, except that the somatostatin is replaced with one of its agonist analogues, namely the synthetic peptide of formula c[Tic-Tyr-DTrp-Lys-Abu-Phe] (hereafter AG1 peptide).
The procedure used is the same as for Example 1, except that the somatostatin is replaced by one of its antagonist analogues, namely the synthetic peptide of formula Cpa-c(DCys-3-Pal-DTrp-NMeLys-Thr-Cys)-2-Nal-NH2 (hereafter ANT1 peptide).
(§1) FIG. 1 represents the proportions of dormant follicles during a period of 10 days of culture of an ovarian cortex of a ewe in the presence or absence (control) of somatostatin (SST14). These proportions are measured for each sample tested on the day of the start of the experiment (D0), on the 4th day (D4), on the 7th day (D7) and on the 10th day (D10).
as §1, with “FIG. 2” for “FIG. 1”, “of primary” for “of dormant”
FIG. 3 represents the proportions of primordial, intermediate, primary and secondary follicles during a period of 10 days of culture of an ovarian cortex of a ewe in the absence of agonist or somatostatin antagonist analogue. These proportions are measured for each sample tested on the day of the start of the experiment (D0), on the 4th day (D4), on the 7th day (D7) and on the 10th day (D10).
(§2) FIG. 4 represents the proportions of primordial, intermediate, primary and secondary follicles during a period of 10 days of culture of an ovarian cortex of a ewe in the presence or absence of a somatostatin agonist analogue, the synthetic peptide of formula c[Tic-Tyr-DTrp-Lys-Abu-Phe] (AG1 peptide). These proportions are measured for each sample tested on the day of the start of the experiment (D0), on the 4th day (D4), on the 7th day (D7) and on the 10th day (D10).
as §2, with “FIG. 5” for “FIG. 4”, “somatostatin antagonist” for “somatostatin agonist”, “formula Cpa-c(DCys-3-Pal-DTrp-NMeLys-Thr-Cys)-2-Nal-NH2 (ANT1” for “formula c[Tic-Tyr-DTrp-Lys-Abu-Phe] (AG1”

[2] = test system: ovarian follicles; assay: Envisaged typical clinical situations of use in patients; format: in vivo, human; conditions: patient with polycystic ovary syndrome, 120 mg/month, 4th month of treatment, envisaged situation
Description: The following typical situations for a use according to the invention could however be envisaged: • A patient of approximately 20 to 25 years of age (for example) has a partial Turner syndrome through X chromosome microdeletion. Their ovarian function is apparently normal with regular ovulatory cycles. Their FSH serum level is slightly higher during the luteal-follicular transition period (for example FSH=approximately 9.2 IU/litre). […] Considering the high risk that they will have early menopause, the patient is treated with lanreotide acetate at a dose of 120 mg/months (Somatuline® Autogel® 120 mg, Beaufour Ipsen Pharma, France). The treatment is discontinued after several years when the patient wishes to conceive. • A patient of approximately 35 to 40 years of age has had primary sterility for several years. Assessment of the couple produced a diagnosis of sterility of tubal origin, very probably resulting from a history of peritonitis. The menstrual cycles are ovulatory and the FSH serum level is slightly higher during the luteal-follicular transition period (for example FSH=approximately 11.4 IU/L). […] A diagnosis of reduction of the ovarian reserve is made. […] During this treatment, the number of antral follicles present in each ovary is assessed by ultrasound at the start of each menstrual cycle. […]

[3] = AG1 peptide at 10^-9 M, D0-D10, FIG. 4

SMILES: C[C@H](N)C(=O)NCC(=O)N[C@H]1CSSC[C@@H](C(=O)O)NC(=O)[C@H](CO)NC(=O)[C@H]([C@@H](C)O)NC(=O)[C@H](Cc2ccccc2)NC(=O)[C@H]([C@@H](C)O)NC(=O)[C@H](CCCCN)NC(=O)[C@H](Cc2c[nH]c3ccccc23)NC(=O)[C@H](Cc2ccccc2)NC(=O)[C@H](Cc2ccccc2)NC(=O)[C@H](CC(N)=O)NC(=O)[C@H](CCCCN)NC1=O [SST14]
- number of primordial follicles over time ([1]; SST14 at 10^-9 M to 10^-6 M, D0-D10, FIG. 1): maintenance over time of the number of primordial follicles
- number of primary follicles ([1]; SST14 at 10^-9 M to 10^-6 M, D0-D10, FIG. 2): absence of increase in the number of primary follicles
- start of growth of the primordial follicles ([1]; SST14 at 10^-9 M to 10^-6 M): very significantly inhibits the start of growth of the primordial follicles

SMILES: CC(C)[C@@H]1NC(=O)[C@H](CCCCN)NC(=O)[C@@H](Cc2c[nH]c3ccccc23)NC(=O)[C@H](Cc2ccc(O)cc2)NC(=O)[C@@H](NC(=O)[C@H](N)Cc2ccc3ccccc3c2)CSSC[C@@H](C(=O)N[C@H](C(N)=O)[C@@H](C)O)NC1=O [lanreotide acetate]
- ovarian volume and number of antral follicles (ultrasound) [2]: reduction in ovarian volume and in the number of antral follicles

SMILES: CC[C@@H]1NC(=O)[C@H](CCCCN)NC(=O)[C@@H](Cc2c[nH]c3ccccc23)NC(=O)[C@H](Cc2ccc(O)cc2)NC(=O)[C@@H]2Cc3ccccc3CN2C(=O)[C@H](Cc2ccccc2)NC1=O [AG1 peptide, c[Tic-Tyr-DTrp-Lys-Abu-Phe]] (cyclo([Tic]Y[dW]K[Abu]F))
- number of primary follicles [1, 3]: absence of increase in the number of primary follicles
- number of primordial follicles over time [1, 3]: maintenance over time of the number of primordial follicles
- start of growth of the primordial follicles ([1]; AG1 peptide at 10^-9 M): very significantly inhibits the start of growth of the primordial follicles
